Assay results taken from US10947242B2, “[1,2,4]triazolo[1,5and#8208;A]pyrimidine compounds as PDE2 inhibitors” (Janssen Pharmaceutica NV, priority 2016, dated 2021).
Where two headings read alike, the source gives them in different places.

Tests used:
Assay type in all cases: biochemical
[1] = molecular target: T1, Human recombinant PDE3A (hPDE3A) (Homo sapiens, UniProt Q14432); assay: In vitro assay PDE3A (SPA, 3H-cAMP hydrolysis); conditions: for IC50: hPDE3B pIC50, read-out: pIC50 (converted); for Emax: read-out: hPDE3B Emax, read-out: Emax;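 for all read-outs here: the method names PDE3A and the table heading PDE3B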
T1 construct: purchased Scottish Biomedical; host or cells: Sf9 insect cells
T1 sequence (Q14432 whole entry): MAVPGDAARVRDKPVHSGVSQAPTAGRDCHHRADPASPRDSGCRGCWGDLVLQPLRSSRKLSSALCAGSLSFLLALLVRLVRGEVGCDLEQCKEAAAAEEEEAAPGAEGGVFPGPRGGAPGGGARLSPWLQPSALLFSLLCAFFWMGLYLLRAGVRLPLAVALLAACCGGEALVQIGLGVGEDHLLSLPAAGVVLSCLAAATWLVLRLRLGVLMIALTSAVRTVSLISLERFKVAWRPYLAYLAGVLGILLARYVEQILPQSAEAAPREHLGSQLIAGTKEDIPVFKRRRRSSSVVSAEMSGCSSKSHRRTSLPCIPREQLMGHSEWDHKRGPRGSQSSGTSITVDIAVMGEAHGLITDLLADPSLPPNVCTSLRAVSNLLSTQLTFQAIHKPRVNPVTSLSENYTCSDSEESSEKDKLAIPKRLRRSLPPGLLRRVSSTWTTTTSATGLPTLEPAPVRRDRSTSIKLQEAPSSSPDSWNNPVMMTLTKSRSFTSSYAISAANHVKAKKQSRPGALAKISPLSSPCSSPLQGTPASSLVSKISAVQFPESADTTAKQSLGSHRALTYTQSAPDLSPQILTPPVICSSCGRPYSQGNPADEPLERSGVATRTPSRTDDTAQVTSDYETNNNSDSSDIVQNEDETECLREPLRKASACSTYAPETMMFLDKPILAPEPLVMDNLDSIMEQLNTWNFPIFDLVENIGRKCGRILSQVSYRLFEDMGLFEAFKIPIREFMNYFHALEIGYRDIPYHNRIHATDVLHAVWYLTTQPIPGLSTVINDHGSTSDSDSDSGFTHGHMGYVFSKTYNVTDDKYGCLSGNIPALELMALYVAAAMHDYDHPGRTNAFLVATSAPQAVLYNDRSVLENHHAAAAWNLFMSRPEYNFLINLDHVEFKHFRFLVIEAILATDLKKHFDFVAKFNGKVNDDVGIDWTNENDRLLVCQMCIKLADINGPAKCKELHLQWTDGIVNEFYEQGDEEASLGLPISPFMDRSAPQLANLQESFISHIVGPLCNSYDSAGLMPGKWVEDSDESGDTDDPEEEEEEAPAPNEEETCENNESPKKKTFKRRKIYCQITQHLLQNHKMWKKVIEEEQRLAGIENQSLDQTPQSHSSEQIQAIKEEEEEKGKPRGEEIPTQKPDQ
Outline: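 Radiometric SPA measuring [3H]-cAMP hydrolysis (0.4 μM cAMP, 2.4 μCi/ml) over 60 min at room temperature, in Tris pH 7.8 buffer with MgCl2 and EGTA, 1% DMSO. Enzyme: recombinant human brain PDE3A expressed in Sf9 cells, used as partially purified lysate. Counts compared with enzyme-free blanks and vehicle controls.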

[2] = molecular target: T2, Human recombinant PDE2A (hPDE2A) (Homo sapiens, UniProt O00408); assay: In vitro assay PDE2A (SPA, 3H-cGMP hydrolysis); conditions: for Emax: read-out: hPDE2A Emax
T2 construct: His tag (inferred from metal chelate purification); made in house; host or cells: Sf9 insect cells (baculovirus)
T2 sequence (O00408 whole entry): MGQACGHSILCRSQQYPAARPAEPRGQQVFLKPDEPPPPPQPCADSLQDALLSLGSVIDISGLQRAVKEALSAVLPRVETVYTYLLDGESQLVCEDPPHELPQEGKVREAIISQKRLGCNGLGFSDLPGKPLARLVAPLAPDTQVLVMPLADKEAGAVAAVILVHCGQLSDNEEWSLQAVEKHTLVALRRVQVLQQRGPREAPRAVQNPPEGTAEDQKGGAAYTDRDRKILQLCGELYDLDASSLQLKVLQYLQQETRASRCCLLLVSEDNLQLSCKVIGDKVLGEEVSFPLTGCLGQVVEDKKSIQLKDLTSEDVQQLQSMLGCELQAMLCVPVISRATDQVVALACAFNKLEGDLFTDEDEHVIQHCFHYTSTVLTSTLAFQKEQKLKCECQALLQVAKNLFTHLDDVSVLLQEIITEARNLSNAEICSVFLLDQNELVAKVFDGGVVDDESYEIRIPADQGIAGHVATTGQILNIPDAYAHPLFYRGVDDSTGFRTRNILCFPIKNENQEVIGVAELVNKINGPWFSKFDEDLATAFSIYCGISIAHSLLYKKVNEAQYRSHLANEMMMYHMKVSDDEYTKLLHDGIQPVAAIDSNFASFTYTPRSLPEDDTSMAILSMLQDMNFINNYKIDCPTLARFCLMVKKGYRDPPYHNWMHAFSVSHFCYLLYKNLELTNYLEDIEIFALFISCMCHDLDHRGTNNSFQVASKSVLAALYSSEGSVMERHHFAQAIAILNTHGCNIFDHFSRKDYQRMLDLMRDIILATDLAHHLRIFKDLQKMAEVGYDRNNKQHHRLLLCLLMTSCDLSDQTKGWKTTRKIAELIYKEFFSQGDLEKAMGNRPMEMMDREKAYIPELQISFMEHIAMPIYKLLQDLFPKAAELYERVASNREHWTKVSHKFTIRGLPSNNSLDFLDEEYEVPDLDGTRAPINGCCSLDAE

[3] = molecular target: T3, Human recombinant PDE10A (hPDE10A) (Homo sapiens, UniProt Q9Y233); assay: In vitro assay PDE10A, human clone (SPA, 3H-cAMP hydrolysis)
T3 construct: His tag (inferred from metal chelate purification); made in house; host or cells: Sf9 insect cells (baculovirus)
T3 sequence (Q9Y233 267-1055): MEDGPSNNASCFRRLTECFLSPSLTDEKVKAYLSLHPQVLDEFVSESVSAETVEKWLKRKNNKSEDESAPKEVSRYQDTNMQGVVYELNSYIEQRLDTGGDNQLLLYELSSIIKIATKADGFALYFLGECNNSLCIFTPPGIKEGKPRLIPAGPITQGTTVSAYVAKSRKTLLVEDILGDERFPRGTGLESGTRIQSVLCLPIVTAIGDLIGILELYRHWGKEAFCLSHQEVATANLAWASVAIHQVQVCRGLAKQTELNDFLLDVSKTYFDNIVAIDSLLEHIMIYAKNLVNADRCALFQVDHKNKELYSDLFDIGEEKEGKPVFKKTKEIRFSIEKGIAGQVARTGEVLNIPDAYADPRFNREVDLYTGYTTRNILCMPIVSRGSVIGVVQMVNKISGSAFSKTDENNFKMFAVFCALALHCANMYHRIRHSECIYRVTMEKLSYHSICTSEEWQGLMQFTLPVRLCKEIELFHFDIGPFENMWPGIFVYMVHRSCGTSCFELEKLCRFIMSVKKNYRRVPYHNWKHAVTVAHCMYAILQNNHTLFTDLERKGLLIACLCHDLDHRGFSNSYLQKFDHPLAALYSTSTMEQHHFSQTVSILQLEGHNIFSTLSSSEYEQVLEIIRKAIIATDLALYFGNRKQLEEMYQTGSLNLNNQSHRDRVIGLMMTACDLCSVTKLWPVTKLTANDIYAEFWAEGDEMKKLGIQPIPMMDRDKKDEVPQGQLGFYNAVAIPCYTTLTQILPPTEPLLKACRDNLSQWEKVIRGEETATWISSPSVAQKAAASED
Outline: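 Hydrolysis of 3H-cAMP (60 nM cAMP, 0.008 μCi tracer) proceeded for 60 min at room temperature, with the product detected by SPA bead scintillation counting. The enzyme was hPDE10A from baculovirus-infected Sf9 cells in Tris pH 7.8 buffer with MgCl2 and EGTA, and compounds were at 1% DMSO final. Blanks lacked enzyme.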

[4] = read-out: hPDE2A pIC50 (converted)
[5] = human clone by default (no (r) mark), read-out: hPDE10A2 or rPDE10A2 Emax
[6] = human clone by default (no (r) mark), read-out: hPDE10A2 or rPDE10A2 pIC50 (converted)
[7] = hPDE2A pIC50, human recombinant PDE2A, 10 μM cGMP substrate
[8] = human clone (h), default, read-out: hPDE10A2 Emax
[9] = human clone (h), default, read-out: hPDE10A2 pIC50 (converted)
[10] = human recombinant PDE2A, 10 μM cGMP substrate, read-out: hPDE2A pIC50 (converted)
[11] = human clone by default (no (r) mark)

Compound | IC50 [1] [nM] | Emax [1] [%] | Emax [2] [%] | IC50 [2, 4] [nM] | Emax [3, 5] [%] | IC50 [3, 6] [nM] | IC50 ([2]; hPDE2A pIC50) [nM] | IC50 [2, 7] [nM] | Emax [3, 8] [%] | IC50 [3, 9] [nM] | IC50 [2, 10] [nM] | Emax ([2]; human recombinant PDE2A) [%] | hPDE3B Emax [1] | hPDE2A Emax [2] | hPDE10A2 or rPDE10A2 Emax [3, 11] | hPDE10A2 or rPDE10A2 pIC50 [3, 11]
Cn1ccc2cc(C(=O)N3[C@H]4CC[C@H](c5cc(C(F)F)nc6ncnn56)[C@@H]3CC4)ncc21 [Compound 382] | > 10000 | 37 | 99 | 10.2 | 75 | 3980 |  |  |  |  |  |  |  |  |  | 
Cc1cc([C@@H]2CN(C(=O)c3ccnc(Cl)c3)CC[C@H]2C)n2ncnc2n1 [Compound 15] | 8130 | 54 | 100 |  |  |  | 3.24 | 3.24 | 97 | 72.4 |  |  |  |  |  | 
C[C@@H]1CCN(C(=O)c2cc(F)ccn2)C[C@H]1c1cc(C(F)F)nc2ncnn12 [Compound 250] | > 10000 | 28 | 99 | 132 | 64 | 4900 |  |  | 64 | 4900 |  |  |  |  |  | 
Cc1cc([C@H]2CN(C(=O)c3cc(C)c(F)c(C)c3)CC[C@@H]2C)n2ncnc2n1 [Compound 217] | > 10000 | 37 | 99 |  | 72 | 4790 | 562 | 562 | 72 | 4790 |  |  |  |  |  | 
C[C@@H]1CCN(C(=O)c2cccc3c2ncn3C)C[C@H]1c1cc(C(F)F)nc2ncnn12 [Compound 178] | 7410 | 62 | 101 | 13.5 |  |  |  |  | 92 | 794 | 13.5 | 101 |  |  |  | 
Cc1ncc(C(=O)N2CC[C@@H](C)[C@H](c3cc(C(F)F)nc4ncnn34)C2)cn1 [Compound 244] | > 10000 | 12 | 92 | 676 | 54 | 9330 |  |  | 54 | 9330 |  |  |  |  |  | 
C[C@@H]1CCN(C(=O)c2cnn(C)c2)C[C@H]1c1cc(C(F)F)nc2ncnn12 [Compound 177] | > 10000 | 21 | 99 | 9.55 |  |  |  |  | 93 | 457 | 9.55 | 99 |  |  |  | 
COc1ccc(C(=O)N2CC[C@@H](C)[C@H](c3cc(C(F)F)nc4ncnn34)C2)cc1C#N [Compound 265] | 6310 | 55 | 102 | 2.4 | 98 | 37.2 |  |  | 98 | 37.2 |  |  |  |  |  | 
Cc1cc(C(=O)N2[C@H]3CC[C@H](c4cc(C(F)F)nc5ncnn45)[C@@H]2CC3)c(F)cn1 [Compound 86] | > 10000 | 34 | 100 | 50.1 |  |  |  |  | 40 | > 10000 |  |  |  |  |  | 
C[C@@H]1CCN(C(=O)c2ccncc2Cl)C[C@H]1c1cc(C(F)F)nc2ncnn12 [Compound 235] | > 10000 | 32 | 98 | 123 | 67 | 5500 |  |  | 67 | 5500 | 123 | 98 |  |  |  | 
Cc1cc2ccc(C(=O)N3CC[C@@H](C)[C@H](c4cc(C(F)F)nc5ncnn45)C3)cn2c1 [Compound 289] | 178 | 98 | 100 | 2.4 | 99 | 63.1 |  |  |  |  |  |  |  |  |  | 
O=C(c1cccc2cccnc12)N1[C@H]2CC[C@H](c3cc(C(F)F)nc4ncnn34)[C@@H]1CC2 [Compound 316] | > 10000 | 5 | 94 | 257 | 14 | > 10000 |  |  |  |  |  |  |  |  |  | 
C[C@@H]1CCN(C(=O)c2ccc3ccccc3n2)C[C@H]1c1cc(C(F)F)nc2ncnn12 [Compound 323] | 724 | 95 | 100 | 3.89 | 97 | 224 |  |  |  |  |  |  |  |  |  | 
C[C@@H]1CCN(C(=O)c2cncn2C)C[C@H]1c1cc(C(F)F)nc2ncnn12 [Compound 164] | > 10000 | 22 | 100 | 89.1 |  |  |  |  | 82 | 1950 | 89.1 | 100 |  |  |  | 
C[C@@H]1CCN(C(=O)c2cc3ccc(C(F)(F)F)cc3[nH]2)C[C@H]1c1cc(C(F)F)nc2ncnn12 [Compound 94] | 105 | 99 | 101 | 0.501 |  |  |  |  | 97 | 11.7 | 0.501 | 101 |  |  |  | 
C[C@@H]1CCN(C(=O)c2cc(C#N)ccn2)C[C@H]1c1cc(C(F)F)nc2ncnn12 [Compound 163] | > 10000 | 12 | 98 | 89.1 |  |  |  |  | 74 | 3240 | 89.1 | 98 |  |  |  | 
C[C@@H]1CCN(C(=O)c2cnc(O)c(Cl)c2)C[C@H]1c1cc(C(F)F)nc2ncnn12 [Compound 173] | > 10000 | 31 | 101 | 13.8 |  |  |  |  | 96 | 302 | 13.8 | 101 |  |  |  | 
CC(C)Oc1cc(C(=O)N2CC[C@@H](C)[C@H](c3cc(C(F)F)nc4ncnn34)C2)cc(C(C)C)c1 [Compound 144] | 2400 | 86 | 100 | 34.7 |  |  |  |  | 96 | 468 | 34.7 | 100 |  |  |  | 
C[C@@H]1CCN(C(=O)c2nccnc2Cl)C[C@H]1c1cc(C(F)F)nc2ncnn12 [Compound 237] | > 10000 | 20 | 97 | 186 | 51 | 8130 |  |  | 51 | 8130 | 186 | 97 |  |  |  | 
Cc1cc([C@@H]2CN(C(=O)c3cc(C)sc3C)CC[C@H]2C)n2ncnc2n1 [Compound 16] | 1660 | 88 | 100 | 6.17 |  |  |  |  | 98 | 63.1 | 6.17 | 100 |  |  |  | 
Cc1nc2ccncc2cc1C(=O)N1CC[C@@H](C)[C@H](c2cc(C(F)F)nc3ncnn23)C1 [Compound 151] | > 10000 | 11 | 100 | 40.7 |  |  |  |  | 85 | 1380 |  |  |  |  |  | 
O=C(c1ccc2nccnc2c1)N1[C@H]2CC[C@H](c3cc(C(F)F)nc4ncnn34)[C@@H]1CC2 [Compound 381] |  | 48 | 99 | 7.59 | 88 | 1320 |  |  |  |  |  |  |  |  |  | 
O=C(c1ccnc2ccccc12)N1[C@H]2CC[C@H](c3cc(C(F)F)nc4ncnn34)[C@@H]1CC2 [Compound 318] |  |  |  |  |  |  |  |  |  |  |  |  | 11 | 89 | 13 | <5
Cc1nc(C(F)(F)F)cc(C(=O)N2CC[C@@H](C)[C@H](c3cc(C(F)F)nc4ncnn34)C2)c1F [Compound 394] | > 10000 | 27 | 99 | 9.33 | 76 | 2240 |  |  |  |  |  |  |  |  |  | 
C[C@@H]1CCN(C(=O)c2ncc[nH]2)C[C@H]1c1cc(C(F)F)nc2ncnn12 [Compound 240] | > 10000 | 9 | 90 | 1550 | 51 | 9120 |  |  | 51 | 9120 | 1550 | 90 |  |  |  | 
O=C(c1ccnc2ccccc12)N1[C@H]2CC[C@H](c3cc(C(F)F)nc4ncnn34)[C@@H]1CC2 [Compound 317] | > 10000 | 15 | 99 |  |  | > 10000 |  |  |  |  |  |  |  |  | 34 | 
C[C@@H]1CCN(C(=O)c2ccc3ncoc3c2)C[C@H]1c1cc(C(F)F)nc2ncnn12 [Compound 104] | 513 | 92 | 100 | 0.813 |  |  |  |  | 98 | 74.1 | 0.813 | 100 |  |  |  | 
O=C(c1ccc(F)c(F)c1)N1[C@H]2CC[C@H](c3cc(C(F)F)nc4ncnn34)[C@@H]1CC2 [Compound 337] | > 10000 | 43 | 99 | 166 | 71 | 4570 |  |  |  |  |  |  |  |  |  | 
C[C@@H]1CCN(C(=O)c2ccc(C3CC3)c(C3CC3)c2)C[C@H]1c1cc(C(F)F)nc2ncnn12 [Compound 226] | 129 | 100 | 100 | 0.871 | 100 | 81.3 |  |  | 100 | 81.3 | 0.871 | 100 |  |  |  | 
